# Test results taken from patent EP4691489A1, “GROWTH HORMONE SECRETION PROMOTER” (Scohia Pharma, Inc., priority 2023, dated 2024).
# How the values were obtained:
# [1] = biological target: T1, SSTR 5 (Homo sapiens, UniProt P35346); assay: human SSTR5 antagonist activity using intracellular cAMP concentration as an indicator (HTRF); type: cell-based; set-up: expressed in transfected cells; conditions: 1 µM test compound; CHO (dhfr-) cells expressing human SSTR5; 0.1 nM somatostatin 28, 0.3 µM forskolin; read-out: inhibitory rate (%) against SSTR5 at 1 µM
# Method: The intracellular cAMP concentration was measured using HTRF cAMP dynamic 2 kit (Cisbio). A test compound diluted with an assay buffer (5 mM HEPES (pH 7.5) (Invitrogen), 0.1% fatty-acid free BSA (Sigma), and 500 µM IBMX (Wako)-containing HBSS (Invitrogen)) was added at 2 µL/well to a 384-well white plate (Greiner) to a final concentration of 1 µM. Frozen stock of CHO (dhfr-) cells stably expressing the human SSTR5 gene (Accession No. NM_001053) was thawed in a thermostatic tank at 37°C and suspended in a passage medium (MEM alpha (Wako)) containing 10% dialyzed serum (Gemini) and 50 µg/mL gentamicin (Invitrogen). The cell suspension was centrifuged, and the cells were resuspended in an assay buffer, and added by 2 µL to each well at about 4,000 cells/well. The compound and the cells were incubated for 15 min, an assay buffer containing a final concentration 0.1 nM of somatostatin 28 (Toray Research Center) and 0.3 µM forskolin (Wako) was added by 2 µL/well, and the cells were incubated at room temperature for 30 min. cAMP-d2 and anti-cAMP-cryptate were each added by 3 µL/well, allowed to stand at room temperature for 60 min, and the fluorescence resonance energy transfer (FRET) intensity was measured using the Multi-label reader Envision (Perkin Elmer). The FRET intensity of the wells to which the test compound group was added was converted into cAMP concentration by using a calibration curve created from the FRET intensities of well groups in which cAMP at any concentration was added to the assay buffer. The inhibitory activity of the compound was calculated using the following formula. Inhibitory activity(%) = (C−B)/(A−B) × 100 [formula] • A: cAMP concentration calculated from wells containing 0.3 µM forskolin • B: cAMP concentration calculated from wells containing 0.3 µM forskolin, 0.1 nM somatostatin 28 • C: cAMP concentration of wells containing 0.3 µM forskolin, 0.1 nM somatostatin 28, and 1 µM test compound
# [2] = biological target: T2, SSTR 4 (Homo sapiens, UniProt P31391); assay: radiolabeled ligand binding assay, selectivity for human SSTR subtype; conditions: CHO-K1 membrane fraction, [125I] Tyr11-somatostatin 14, 1 µM compound
# T2 construct: expressed in transfected cells; host or cells: CHO-K1 cells (membrane fraction)
# Method: (§1) The selectivity of test compounds for human SSTR subtypes was investigated by radiolabeled ligand binding assay. The membrane fraction of CHO-K1 cells expressing human SSTR1-5 was suspended in am assay buffer (25 mM HEPES (pH 7.4), 5 mM MgCl2, 1 mM CaCl2, 10 µg/mL saponin, 0.5% fatty-acid free BSA) and incubated for 1 hr in the presence of 1 µM test compound 1 and [^125I] Tyr^11-somatostatin 14 (Perkin Elmer). Thereafter, the solution containing the membrane fraction was transferred onto a filter plate, and after washing the filter six times with a wash buffer (25 mM HEPES, 5 mM MgCl2, 1 mM CaCl2), 50 µL of Microscint 20 (Packard) was added, and the radioactivity was measured using a TopCount (Perkin Elmer). The results of competitive activity of the test compound against the binding of the human SSTR subtypes with the labeled ligands are shown in Table 2.
# [3] = biological target: T3, SSTR 3 (Homo sapiens, UniProt P32745); assay: as above; conditions: CHO-K1 membrane fraction, [125I] Tyr11-somatostatin 14, 1 µM compound
# T3 construct: expressed in transfected cells; host or cells: CHO-K1 cells (membrane fraction)
# Method: as §1
# [4] = biological target: T4, SSTR 2 (Homo sapiens, UniProt P30874); assay: as above; conditions: CHO-K1 membrane fraction, [125I] Tyr11-somatostatin 14, 1 µM compound
# T4 construct: expressed in transfected cells; host or cells: CHO-K1 cells (membrane fraction)
# Method: as §1
# [5] = biological target: T5, SSTR 1 (Homo sapiens, UniProt P30872); assay: as above; conditions: CHO-K1 membrane fraction, [125I] Tyr11-somatostatin 14, 1 µM compound
# T5 construct: expressed in transfected cells; host or cells: CHO-K1 cells (membrane fraction)
# Method: as §1
# [6] = system: healthy Japanese adult men; assay: Phase 1 single dose study, blood anterior pituitary hormone concentrations (ELISA); type: in vivo; conditions: human
# Method: The examples in this section show the measurement results of blood anterior pituitary hormone concentrations using blood samples from a dose escalation study targeting healthy Japanese adult men, from A Randomized, Double-Blind, Placebo-Controlled, Phase 1 Study (jRCT2051210027) targeting healthy adults, which was conducted to examine the safety and tolerability, pharmacokinetics, and pharmacodynamic action of a single administration of test compound 1.
# In a randomized, double-blind, placebo-controlled, parallel-group comparison, dose-escalation study consisting of 7 cohorts, a single dose of test compound 1 (1, 3, 10, 20, 40, 80 and 160 mg) or placebo was orally administered under fasting conditions. Eight test subjects (6 in the active drug group and 2 in the placebo group) participated in each cohort. The concomitant use of all medications was prohibited from 28 days before hospitalization until discharge.
# The test subjects were inspected and examined within 28-2 days and 1 day before administration of test compound 1, and eligibility was confirmed based on the above-mentioned inclusion criteria and exclusion criteria. […] They were fasted for 10 hr before administration and 4 hr after administration until lunch, and took lunch at 13:00 p.m. The blood was collected 0.5 hr before and 1, 2, 4, 6, 8, and 10 hr after administration of test compound 1.
# The concentration of anterior pituitary hormone was measured using blood from the placebo administration group of all cohorts and the test subjects who received administration of 1 mg or 10 mg of test compound 1, at 0.5 hr before administration and 2, 4, 6, 8, and 10 hr after administration. The concentrations of growth hormone, follicle-stimulating hormone, luteinizing hormone, thyroid-stimulating hormone, adrenocorticotropic hormone, and prolactin in blood were measured using the Human Growth Hormone Quantikine ELISA Kit (manufactured by R&D Systems), Follicle-Stimulating Hormone (Human) ELISA Kit (manufactured by Cayman Chemical), Luteinizing Hormome (Human) ELISA Kit (manufactured by Cayman Chemical), U-TSH ELISA (manufactured by BIOCHECK), ACTH ELISA Kit (manufactured by MB Biosciences GmbH), and Human Prolactin Quantikine ELISA Kit (manufactured by R&D Systems) according to the protocol described in the package insert of each kit.
# [7] = biological target: T1, SSTR 5; assay: radiolabeled ligand binding assay, selectivity for human SSTR subtype; set-up: expressed in transfected cells; host or cells: CHO-K1 cells (membrane fraction)
# Method: as §1
# T1 sequence (P35346 whole entry): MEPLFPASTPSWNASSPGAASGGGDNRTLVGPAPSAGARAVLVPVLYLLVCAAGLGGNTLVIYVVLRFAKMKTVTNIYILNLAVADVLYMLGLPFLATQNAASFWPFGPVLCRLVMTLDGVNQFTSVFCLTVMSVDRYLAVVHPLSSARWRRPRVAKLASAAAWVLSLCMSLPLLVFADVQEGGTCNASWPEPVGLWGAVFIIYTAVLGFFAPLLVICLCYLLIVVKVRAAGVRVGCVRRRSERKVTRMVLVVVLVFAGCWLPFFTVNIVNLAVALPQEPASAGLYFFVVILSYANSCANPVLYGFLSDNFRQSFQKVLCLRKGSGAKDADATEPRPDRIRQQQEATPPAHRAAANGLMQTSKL
# T2 sequence (P31391 whole entry): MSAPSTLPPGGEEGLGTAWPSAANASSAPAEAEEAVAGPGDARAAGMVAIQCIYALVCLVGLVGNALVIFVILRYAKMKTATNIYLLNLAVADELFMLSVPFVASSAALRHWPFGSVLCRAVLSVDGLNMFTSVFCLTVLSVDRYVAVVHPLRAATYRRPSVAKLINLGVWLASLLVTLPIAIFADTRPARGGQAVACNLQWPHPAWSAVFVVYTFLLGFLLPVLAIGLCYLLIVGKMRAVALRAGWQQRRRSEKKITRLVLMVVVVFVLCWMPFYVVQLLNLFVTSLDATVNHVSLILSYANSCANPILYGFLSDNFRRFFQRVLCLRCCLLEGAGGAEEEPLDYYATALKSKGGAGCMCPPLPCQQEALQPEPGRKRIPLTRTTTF
# T3 sequence (P32745 whole entry): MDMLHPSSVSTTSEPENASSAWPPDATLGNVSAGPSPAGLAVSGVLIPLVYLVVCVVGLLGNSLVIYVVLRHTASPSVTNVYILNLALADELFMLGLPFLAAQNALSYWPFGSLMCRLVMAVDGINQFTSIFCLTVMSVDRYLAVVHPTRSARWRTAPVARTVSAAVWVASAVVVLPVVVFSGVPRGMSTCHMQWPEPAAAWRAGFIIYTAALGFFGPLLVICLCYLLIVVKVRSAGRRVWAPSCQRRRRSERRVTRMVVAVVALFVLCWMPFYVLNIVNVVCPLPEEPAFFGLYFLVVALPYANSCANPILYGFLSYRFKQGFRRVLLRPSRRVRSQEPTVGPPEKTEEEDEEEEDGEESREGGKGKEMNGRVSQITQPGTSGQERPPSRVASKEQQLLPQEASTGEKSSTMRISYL
# T5 sequence (P30872 whole entry): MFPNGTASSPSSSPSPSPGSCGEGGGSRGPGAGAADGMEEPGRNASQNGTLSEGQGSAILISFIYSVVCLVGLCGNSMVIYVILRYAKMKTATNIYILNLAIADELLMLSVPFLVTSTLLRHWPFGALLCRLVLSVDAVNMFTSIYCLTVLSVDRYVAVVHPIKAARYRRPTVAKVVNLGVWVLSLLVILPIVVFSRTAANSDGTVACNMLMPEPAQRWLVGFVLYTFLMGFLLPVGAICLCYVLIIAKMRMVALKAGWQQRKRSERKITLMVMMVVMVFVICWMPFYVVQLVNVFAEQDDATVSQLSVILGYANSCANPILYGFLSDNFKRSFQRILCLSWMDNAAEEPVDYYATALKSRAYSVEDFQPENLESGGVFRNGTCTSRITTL
# T4 sequence (P30874 whole entry): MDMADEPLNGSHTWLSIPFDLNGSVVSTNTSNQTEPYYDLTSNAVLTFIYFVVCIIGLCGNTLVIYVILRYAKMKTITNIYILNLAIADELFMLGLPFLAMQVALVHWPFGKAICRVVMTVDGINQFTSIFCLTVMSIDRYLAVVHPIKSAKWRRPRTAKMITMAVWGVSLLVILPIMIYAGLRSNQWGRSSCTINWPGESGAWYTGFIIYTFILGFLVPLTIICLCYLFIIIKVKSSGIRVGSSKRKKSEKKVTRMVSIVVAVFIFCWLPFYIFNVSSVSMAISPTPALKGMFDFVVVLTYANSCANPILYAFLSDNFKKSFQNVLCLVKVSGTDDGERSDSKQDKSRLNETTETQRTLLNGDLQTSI
smiles,measurement,setting,value
"CCOc1c(CN2CCC(n3ccc(C(=O)O)c(C)c3=O)CC2)cc(C2CC2)c(-c2ccc(F)cc2)c1F [test compound 7, 1-(1-((6-cyclopropyl-3-ethoxy-2,4'-difluorobiphenyl-4-yl)methyl)piperidin-4-yl)-3-methyl-2-oxo-1,2-dihydropyridine-4-carboxylic acid]",inhibition at 1 µM,[1],87%
"CCCc1nc2c(cc1C(=O)O)C(=O)N(C1CCN(Cc3cc(C4CC4)c(-c4ccc(F)cc4)c(F)c3OCC)CC1)CC2 [test compound 2, 6-(1-((6-cyclopropyl-3-ethoxy-2,4'-difluorobiphenyl-4-yl)methyl)piperidin-4-yl)-5-oxo-2-propyl-5,6,7,8-tetrahydro-1,6-naphthyridine-3-carboxylic acid]",inhibition at 1 µM,[1],85%
"CCCc1nc2c(cc1C(=O)O)C(=O)N(C1CCN(Cc3cc(C4CC4)c(-c4ccc(F)cc4F)cc3OCC)CC1)CC2 [test compound 3, 6-(1-((2-cyclopropyl-5-ethoxy-2',4'-difluorobiphenyl-4-yl)methyl)piperidin-4-yl)-5-oxo-2-propyl-5,6,7,8-tetrahydro-1,6-naphthyridine-3-carboxylic acid]",inhibition at 1 µM,[1],125%
"CCOc1c(CN2CCC(N3CCc4nc(CC)c(C(=O)O)cc4C3=O)CC2)cc(C2CC2)c(-c2ccc(F)cc2)c1F [test compound 4, 6-(1-((6-cyclopropyl-3-ethoxy-2,4'-difluorobiphenyl-4-yl)methyl)piperidin-4-yl)-2-ethyl-5-oxo-5,6,7,8-tetrahydro-1,6-naphthyridine-3-carboxylic acid]",inhibition at 1 µM,[1],95%
"CCOc1c(CN2CCC(n3ccc(C(=O)O)c(CC)c3=O)CC2)cc(C2CC2)c(-c2ccc(F)cc2)c1F [test compound 5, 1-(1-((6-cyclopropyl-3-ethoxy-2,4'-difluorobiphenyl-4-yl)methyl)piperidin-4-yl)-3-ethyl-2-oxo-1,2-dihydropyridine-4-carboxylic acid]",inhibition at 1 µM,[1],87%
"Cc1c(C(=O)O)ccn(C2CCN(Cc3cc(C4CC4)c(-c4ccc(F)cc4)c(F)c3OC(C)C)CC2)c1=O [test compound 6, 1-(1-((6-cyclopropyl-2,4'-difluoro-3-isopropoxybiphenyl-4-yl)methyl)piperidin-4-yl)-3-methyl-2-oxo-1,2-dihydropyridine-4-carboxylic acid]",inhibition at 1 µM,[1],99%
"CCCc1nc2c(cc1C(=O)O)C(=O)N(C1CCN(Cc3cc(C4CC4)c(-c4ccc(F)cc4)cc3OCC)CC1)CC2 [test compound 1, 6-(1-((2-cyclopropyl-5-ethoxy-4'-fluorobiphenyl-4-yl)methyl)piperidin-4-yl)-5-oxo-2-propyl-5,6,7,8-tetrahydro-1,6-naphthyridine-3-carboxylic acid]",labeled ligand binding rate (%) at 1 µM,[2],109.00%
same,labeled ligand binding rate (%) at 1 µM,[3],99.22%
same,labeled ligand binding rate (%) at 1 µM,[4],100.31%
same,labeled ligand binding rate (%) at 1 µM,[5],105.83%
same,growth hormone secretion (blood growth hormone concentration),"[6]; single oral dose 1 mg and 10 mg, fasting, up to 10 hr after administration, Fig. 1",clearly enhance growth hormone secretion
same,secretion of follicle-stimulating hormone,"[6]; single oral dose 1 mg and 10 mg, fasting, Fig. 2",did not substantially affect the secretion
same,secretion of luteinizing hormone,"[6]; single oral dose 1 mg and 10 mg, fasting, Fig. 3",did not substantially affect the secretion
same,secretion of thyroid-stimulating hormone,"[6]; single oral dose 1 mg and 10 mg, fasting, Fig. 4",did not substantially affect the secretion
same,secretion of adrenocorticotropic hormone,"[6]; single oral dose 1 mg and 10 mg, fasting, Fig. 5",did not substantially affect the secretion
same,secretion of prolactin,"[6]; single oral dose 1 mg and 10 mg, fasting, Fig. 6",did not substantially affect the secretion
same,increase in blood growth hormone concentration compared with growth hormone replacement therapy,[6]; compared with literature values for patients with pediatric growth hormone deficiency (J Clin Endocrinol Metab. 2017),corresponds to the blood growth hormone concentration obtained by growth hormone replacement therapy
same,labeled ligand binding rate (%) at 1 µM,"[7]; SSTR 5, CHO-K1 membrane fraction, [125I] Tyr11-somatostatin 14, 1 µM compound",4.51%
same,selectivity among the human SSTR subtypes,"[7]; conclusion from Table 2, 1 µM",selectively binds to SSTR5
same,inhibition at 1 µM,[1],87%
